Laboratory results from ChEMBL document CHEMBL1141060, “A new synthesis of isoaurones: cytotoxic activity of compounds related to the alleged structure of isoaurostatin” (Bioorg Med Chem Lett, 2005).

Test system: NCI-H460
Test: Cytotoxic activity against human non-small lung carcinoma cell line H460
Format: functional, cell-based

SMILES	IC50 [µM]
COc1ccc(/C=C2/C(=O)Oc3ccccc32)cc1O	9.3
COc1cc(/C=C2/C(=O)Oc3ccccc32)cc(OC)c1OC	37.7
COc1cc(OC)c2c(c1)OC(=O)/C2=C/c1ccc(OC)c(O)c1	8.8
O=C1Oc2ccccc2/C1=C\c1ccc(O)cc1	10.1
COc1ccc(/C=C2/C(=O)Oc3ccccc32)cc1	> 39
O=C1Oc2ccccc2/C1=C\c1ccc(OC(=O)c2ccccc2)cc1	> 30
CC(=O)Oc1ccc(/C=C2/C(=O)Oc3ccc(OC(C)=O)cc32)cc1	> 50
